The nature of data set [1]: Radiochemical stability in human serum (iTLC). Format: in vitro ADME. How it is done:
A precursor amount of 50 nmol was labeled with Lutetium-177, achieving a radiochemical yield of over 99% and a molar activity of 25.5 GBq/μmol within 15 min at 95 °C. The radiochemical purity of ^177Lu-PSMA-617 (Rt = 7.47 min) exceeded 98%, as determined by radio-HPLC and iTLC analyses (Figure 1). To assess radiolytic stability, ^177Lu-PSMA-617 was incubated in human serum at 4, 25, and 37 °C for 1, 24, 48, and 72 h. […] However, after 72 h, less than 5% and 4% of free ^177Lu was detected at 4 °C and 25 °C, respectively. […] These findings are consistent with other studies. […] The ability to maintain radiolabeling over an extended period reinforces its viability for targeted radiopharmaceutical therapy and molecular imaging in oncology.
Radiolabeling was conducted as previously described. A total of 1 GBq of non-carrier added lutetium-177 (Isotopia Molecular Imaging, Petach Tikva, Israel) was mixed with 100 μL of a sodium acetate solution (0.4 M, pH 5.5), 1.25 μL of an ascorbic acid solution (20% w/w), and 5 μL of a PSMA-617 solution (10 mM, Ontores Biotechnology Co., Ltd., Hangzhou, China). The mixture solution was subjected to heating at a temperature of 95 °C while being placed on a shaker for 15 min. The labeling efficiency was measured using instant thin-layer chromatography (iTLC) on the glass microfiber chromatography paper impregnated with a silica gel (Agilent Technologies, Santa Clara, CA, USA), where 100 mM EDTA in 100 mM ammonium acetate acts as a mobile phase as described previously. The iTLC sheets were measured using a radioactive scanner (AR-2000 radio-TLC Imaging Scanner, Bioscan, Evreux, France). The labeling rate of >90% was acceptable as performed in the in vitro and in vivo studies. Radiochemical purity was also analyzed by high-performance liquid chromatography (HPLC) with a UV detector (220 nm) and a radio detector using a Zorbax SB-C18 column (Agilent Technologies, Santa Clara, CA, USA). The flow rate was 0.8 mL/min with the gradient mobile phase going from the 80% A buffer (0.1% TFA in water) and 20% B buffer (0.1% TFA in acetonitrile) to the 40% B buffer within 20 min. A sterile 0.9% sodium chloride solution was added before injections in mice. The radiochemical stability of ^177Lu-PSMA-617 in human serum up to 96 h at 4, 25, and 37 °C was tested by iTLC.

Data set [2] has as its system PSMA-negative PC-3 cells. Kind of data set: Cell surface binding and internalization, PC-3 cells. It counts as cell-based, human. The procedure:
Cell surface binding and internalization experiments were performed with ^177Lu-PSMA-617 using PSMA-positive LNCaP cells and PSMA-negative PC-3 cells in order to determine if the uptake of ^177Lu-PSMA-617 was PSMA-specific. For this purpose, cells were seeded in 24-well plates (10^5 cells in 1 mL of the RPMI medium/well), allowing adhesion and growth overnight at 37 °C. After the removal of the supernatant, cells were washed once with PBS prior to the addition of the RPMI medium without supplements, followed by the addition of the radiolabeled ^177Lu-PSMA-617 (in MBq/nmol) to each well. The well plates were incubated at 37 °C for 1, 2, and 4 h, respectively. The cells were washed three times with ice-cold PBS to determine the total uptake of ^177Lu-PSMA-617. The internalized fraction of ^177Lu-PSMA-617 was determined in cells which were washed with ice-cold PBS, then incubated for 10 min with acidic stripping buffer (50 mM glycine, pH 2.8) followed by an additional washing step with ice-cold PBS. Cell samples were lysed by the addition of NaOH (1 N, 1 mL) to each well. The samples of the cell suspensions were measured in a γ-counter (PerkinElmer, Waltham, MA, USA).

Data set [3] has as its system bone metastasis of LNCaP/Luc prostate cancer. Kind of data set: Therapeutic efficacy in mice with bone metastasis of LNCaP/Luc prostate cancer. It counts as in vivo, mouse. The settings on record: for median survival time: tail vein, day 0, control 26 days; for lifespan increase: vs control. The procedure:
Therapeutic response monitoring was performed using bioluminescence imaging on days 3, 7, 15, and 30. […] The survival curves presented in Figure 6C further highlight the therapeutic effect. The median survival time for the control group (receiving normal saline) was 26 days, whereas mice treated with 1mCi (37 MBq) and 3mCi (111 MBq) of ^177Lu-PSMA-617 had median survival times of 34 days (p = 0.01) and 40 days (p = 0.02), respectively.
The mice were intratibially injected with LNCaP/Luc cells. After 45 days of tumor-implantation, the mice were assigned to three groups, including the saline control (n = 6), a low dose of ^177Lu-PSMA-617 (n = 8), and a high dose of ^177Lu-PSMA-617 (n = 9). The mice were administered via the tail vein with equivalent to 1mCi (37 MBq) and 3mCi (111 MBq) of ^177Lu-PSMA-617 on day 0. Body weight changes were measured during observation days. The death of mice was recorded for the survival curve by the Kaplan–Meier method. A humane endpoint was defined as a decrease in body weight of 20% or more compared with the body weight measured on the day of tumor inoculation. The survival rate of all groups was analyzed by the log-rank test, and p < 0.05 was considered significant difference. The median survival time was presented in efficacy studies. The median survival time was calculated as the smallest survival time for which the survivor function is less than or equal to 0.5. The therapeutic responses were monitored by bioluminescence imaging during observation days. The BNL/Luc tumor of mice was imaged and measured using the IVIS Imaging system and Living Imaging software (Xenogen, Alameda, CA, USA; available at https://www.perkinelmer.com) on days 3, 7, 15, and 30.

Details of data set [4]: method as in PMID 25573634. The conditions noted are these: over 96 h; cited from earlier work.

The values below come from paper PMC12250129, “Exploring the Therapeutic Potential of ^177Lu-PSMA-617 in a Mouse Model of Prostate Cancer Bone Metastases” (International Journal of Molecular Sciences, 2025).

As to `O=C([O-])CN1CCN(CC(=O)[O-])CCN(CC(=O)NCC2CCC(C(=O)N[C@@H](Cc3ccc4ccccc4c3)C(=O)NCCCC[C@H](NC(=O)N[C@@H](CCC(=O)O)C(=O)O)C(=O)O)CC2)CCN(CC(=O)[O-])CC1.[177Lu+3]` (stereo partly drawn) [^177Lu-PSMA-617], the free activity in data set [1] (human serum, 4 °C, after 2 h) is given as 1.2%; in data set [1] (human serum, 25 °C, after 2 h), “less than 1.1%”; in data set [1] (human serum, after 48 h, at 4, 25 and 37 °C), “no detectable free activity”. Besides, the “free 177Lu” value in data set [1] (human serum, after 72 h, 4 °C) is listed as “less than 5%”; in data set [1] (human serum, after 72 h, 25 °C), less than 4%; in data set [1] (over a 72 h observation period, 37 °C), “less than 5%”. For the same molecule, in data set [1] (human serum, up to 72 h at 37 °C), the “release of free activity” value is recorded as “without any release of free activity”. The internalization in data set [2] is reported as less than 0.1 % IA/10^6 cells. The surface binding in data set [2] is on record as no more than 1.7 % IA/10^6 cells. The median survival time was 34 days in data set [3] (1mCi (37 MBq), p = 0.01) and 40 days in data set [3] (3mCi (111 MBq), p = 0.02). In addition, the values for the lifespan increase in data set [3] (1mCi (37 MBq)) and in data set [3] (3mCi (111 MBq)) were 30.7% and 53.8%, respectively. Further, the “bioluminescence signal intensity vs controls” value in data set [3] (days 3, 7, 15 and 30 after treatment) is on record as “significantly lower signal intensities”. Further, the “stability in human serum” value in data set [4] is on record as greater than 95%.
